Laboratory results: PubChem BioAssay (NCI)
Values joined by “and” are separate entries in the source; they are usually repeats but may differ in a detail not shown here. Equal entries are not always repeated.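 Where inhibition never reached the appropriate level, the endpoint shown equals the highest concentration tested. Otherwise, values were interpolated linearly from a five-concentration, 48-hour dose response in 96-well plates. The concentration for 50% growth inhibition is given as GI50. TGI: concentration producing complete growth inhibition.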

Assays:
Assay in all cases: inhibition of tumour cell growth, NCI panel, 48 h
SNB-75 CNS = test system: SNB-75 CNS
SF-295 CNS = test system: SF-295 CNS
U251 CNS = test system: U251 CNS
NCI-H460 lung = test system: NCI-H460 lung
KM12 colon = test system: KM12 colon
NCI-H226 lung = test system: NCI-H226 lung
A498 renal = test system: A498 renal
SNB-19 CNS = test system: SNB-19 CNS
OVCAR-5 ovarian = test system: OVCAR-5 ovarian
TK-10 renal = test system: TK-10 renal

Row | Structure (SMILES) | GI50 (SNB-75 CNS) [µM] | TGI (SNB-75 CNS) | GI50 (SF-295 CNS) [µM] | TGI (SF-295 CNS) | GI50 (U251 CNS) [µM] | TGI (U251 CNS) | GI50 (NCI-H460 lung) [µM] | TGI (NCI-H460 lung) | GI50 (KM12 colon) [µM] | TGI (KM12 colon) [µM] | GI50 (NCI-H226 lung) [µM] | TGI (NCI-H226 lung) | GI50 (A498 renal) [µM] | TGI (A498 renal) [µM] | GI50 (SNB-19 CNS) [µM] | TGI (SNB-19 CNS) | GI50 (OVCAR-5 ovarian) [µM] | TGI (OVCAR-5 ovarian) [µM] | GI50 (TK-10 renal) [µM] | TGI (TK-10 renal)
1 | COc1ccccc1OCC(O)CO (stereo not given) | > 100 | > 100 µM | > 100 | > 100 µM | > 100 | > 100 µM | > 100 | > 100 µM | > 100 | > 100 | > 100 | > 100 µM | > 100 | > 100 | > 100 | > 100 µM | > 100 | > 100 | > 100 | > 100 µM
2 | COc1cc(SC)ccc1C(=O)N1CCCC(C)C1 (stereo not given) | > 100 | > 100 µM | > 100 | > 100 µM | > 100 | > 100 µM | > 100 | > 100 µM | > 100 | > 100 | 80.4 | > 100 µM | 34.4 | > 100 | > 100 | > 100 µM | > 100 | > 100 | > 100 | > 100 µM
3 | C[P+](C)(CC(F)(F)F)c1ccccc1 |  | > 100 µM |  | > 100 µM |  | > 100 µM |  | > 100 µM |  | > 100 |  | > 100 µM |  | > 100 |  | > 100 µM |  | > 100 |  | > 100 µM
4 | C[Si](C)(C)[C@@]1([Se]c2ccccc2)CC[C@@H]1C(=O)c1ccccc1 |  | > 100 µM |  | > 100 µM |  | > 100 µM |  | > 100 µM |  | > 100 |  | > 100 µM |  | > 100 |  | > 100 µM |  | > 100 |  | > 100 µM
5 | C=C1C(=O)O[C@H]2[C@H](OC(C)=O)[C@@H](C)CCC/C(C)=C/CC[C@]3(CO3)[C@H](O)C[C@@H]12 | 10.8 | 22.9 µM | 19.7 | 49.3 µM | 3.71 | 12.4 µM | 5.35 | 17.5 µM | 2.33 | 8.96 | 16.3 | 38.6 µM | 16.9 | 33.4 | 15.2 | 28.5 µM | 13.2 | 26.5 | 1.83 | 4.62 µM
6 | Cc1cc(I)cc(CN(C)CCCCN2CCCC2)c1O | 16.5 | 36.9 µM | 13.2 | 28.6 µM | 18.9 | 49.5 µM | 17.3 | 45.9 µM | 19.8 | 53.9 | 30 | > 100 µM | 13.4 | 30.2 | 27.8 | 96.1 µM | 27.6 | > 100 | 20.8 | 50.7 µM
7 | O=c1c2c(=NCCCN3CCCC3)cc3c(=O)n(CCCN4CCCC4)c(=O)c4c(NCCCN5CCCC5)cc(c(O)n1CCCN1CCCC1)c2c4-3 | 1.64 | 4.1 µM | 1.95 | 8.61 µM | 0.647 | 10.4 µM | 1.78 | 4.01 µM | 3.27 | 12.7 | 1.07 | 7.8 µM | 2.13 | 4.98 | 2.11 | 10.6 µM | 1.64 | 4.74 | 2.22 | 8.65 µM
8 | CC(C)(C)c1ccc(C(O)(c2ccc(C(C)(C)C)cc2)c2ccc(C(C)(C)C)cc2)cc1 |  | > 100 µM |  | > 100 µM |  | > 100 µM |  | > 100 µM |  | > 100 |  | > 100 µM |  | > 100 |  | > 100 µM |  | > 100 |  | > 100 µM
9 | COc1ccc(-c2nc(N)nc(-c3cc(C)ccc3O)c2Cl)cc1 |  | 63.9 µM |  | > 100 µM |  | > 100 µM |  | > 100 µM |  | > 100 |  | > 100 µM |  | > 100 |  | > 100 µM |  | > 100 |  | 86.4 µM
10 | O=C(O)CNS(=O)(=O)c1ccc(NC(=O)c2cccc([N+](=O)[O-])c2)cc1 |  | > 100 µM |  | > 100 µM |  | > 100 µM |  | > 100 µM |  | > 100 |  | > 100 µM |  | > 100 |  | > 100 µM |  | > 100 |  | > 100 µM
11 | Cc1ccc(S(=O)(=O)ON=C2CC(c3ccccc3)N(C)C(c3ccccc3)C2)cc1 (stereo not given) |  | 79.3 µM and 66.9 µM |  | 52.4 µM and 65.5 µM |  | 55.3 µM and 53.6 µM |  | 44.1 µM and 52.7 µM |  | 34.1 |  | 70.1 µM and 64 µM |  | 70.8 |  | 92.8 µM and > 100 µM |  | 92.6 |  | 49.1 µM and 48.5 µM
12 | N#CCc1nc2c(s1)C(=O)c1ccccc1C2=O |  | 49.3 µM |  | 34.5 µM |  | 31.1 µM |  | 47.6 µM |  | 36 |  | 37.8 µM |  | 59.1 |  | 40.7 µM |  | 37.2 |  | 36.5 µM
13 | COc1cc(C(N)=O)c(OC)c(OC)c1OC |  | > 100 µM |  | > 100 µM |  | > 100 µM |  | > 100 µM |  | > 100 |  | > 100 µM |  | > 100 |  | > 100 µM |  | > 100 |  | > 100 µM
14 | O=C1CCCc2c(O)ccc(O)c21 |  | > 100 µM |  | > 100 µM |  | > 100 µM |  | > 100 µM |  | > 100 |  | > 100 µM |  | > 100 |  | > 100 µM |  | > 100 |  | > 100 µM
15 | Cc1[nH]nc(C(=O)N/N=C/c2cccs2)c1N=NN(C)C |  | 8.85 µM |  | 45.2 µM |  | 32.1 µM |  | 34.7 µM |  | > 100 |  | 70.1 µM |  | 91 |  | 27.6 µM |  | > 100 |  | 73.5 µM
16 | Cc1ccc(Nc2ccnc(Nc3cccc(C(N)=O)c3)n2)cc1O | 0.431 | 3.93 µM | 7.69 | > 25 µM | 7.84 | > 25 µM | 11.4 | > 25 µM | 7.27 | > 25 | 5.43 | > 23.7 µM | 7.31 | > 25 | 11.5 | > 25 µM | 10.2 | > 25 | 6.39 | 17.6 µM
17 | CC(C)=CCC[C@](C)(O)[C@H]1CC[C@]2(C)[C@@H]1CC[C@@H]1[C@@]3(C)CC[C@H](OC(=O)CCC(=O)O)C(C)(C)[C@@H]3CC[C@]12C | > 100 | > 100 µM | 28.6 | 92.5 µM | 28.1 | > 100 µM | 36.4 | > 100 µM | 18.5 | 41.2 | 16.7 | 40.3 µM | 80.4 | > 100 | 25.1 | > 100 µM | 28.8 | 96.3 | 87.8 | > 100 µM
